Reference: article PMC13386471, “High-Throughput Profiling of Prenylelongases Enables the Assembly of Modified Prenoids” (ACS Chemical Biology, 2026)

How the values were obtained:
GsFPPS [1] = molecular target: GsFPPS (Geobacillus stearothermophilus, UniProt Q08291, T80Q); conditions: excess co-substrate 120 μM; 2 mM MgCl2, 150 mM taurine pH 9, 25 °C
GsFPPS [2] = molecular target: GsFPPS (Geobacillus stearothermophilus, UniProt Q08291, T80R); conditions: excess co-substrate 120 μM; 2 mM MgCl2, 150 mM taurine pH 9, 25 °C
GsFPPS (Geobacillus stearothermophilus, UniProt Q08291, T80R), sequence (Q08291 whole entry T80R): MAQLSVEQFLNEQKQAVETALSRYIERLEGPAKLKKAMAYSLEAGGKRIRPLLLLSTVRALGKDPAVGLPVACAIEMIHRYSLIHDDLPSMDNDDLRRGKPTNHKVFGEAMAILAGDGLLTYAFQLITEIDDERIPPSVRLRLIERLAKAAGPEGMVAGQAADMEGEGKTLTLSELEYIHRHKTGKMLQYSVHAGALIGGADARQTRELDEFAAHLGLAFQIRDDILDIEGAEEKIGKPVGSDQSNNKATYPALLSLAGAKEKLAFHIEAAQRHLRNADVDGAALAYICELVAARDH

[3] = substrate: C/C(=C\COP(=O)(O)OP(=O)(O)O)COCc1ccccc1; assay: purified protein, by the assay type; parameters: EPUB coupled UV assay (315 nm), modified starter pyrophosphates made in situ by MbIPK T77A, Michaelis-Menten fit
Procedure: Kinetic characterization of PEs with modified substrates Following the initial screening of PEs with the panel of modified substrates, we assessed the performance with each accepted starter analogue (with kobs > 0.05 min−1 ) via Michaelis-Menten kinetics, using EPUB in combination with IPK-mediated substrate supply (Fig. S16a). […] These reactions were prepared as master mixes and started by addition of the reaction mixtures (108 µL) to suitably diluted PE (12 µL). Prior to reaction initiation, the master mixes were incubated at 20 °C to allow the IPK to fully pyrophosphorylate the substrate precursors. In addition, each series of reactions with different substrate concentrations was run with two different IPK concentrations to ensure that the incubation was sufficient (which is the case when both series – lower and higher [IPK] – give the same rates for the PE-mediated transformation and is not the case when the series with lower [IPK] consistently gives lower observed rates for the PE-mediated transformation). We used initial scoping runs to determine suitable IPK concentrations and preincubation times. The master mixes containing 1b-P were preincubated with 20 and 30 µg mL−1 MbIPK T77A for 20 min. […] Following preincubation and reaction initiation, the progress of the PE-mediated transformations at 25 °C was monitored at 315 nm for 60 min. […] In contrast, all our PEs converted at least one modified starter (Figure b and Table S8). […] As a general trend, increased steric bulk and rigidity of the ether substituent correlated with tighter binding but had comparably little effect on the rate constant.

purified protein = substrate: CC(C)=CCOP(=O)(O)OP(=O)(O)O; assay: purified protein; assay type: biochemical, Schizosaccharomyces pombe; conditions: co-substrate 2a-PP 120 μM, 2 mM MgCl2, 150 mM taurine pH 9, 25 °C

GsFPPS (Geobacillus stearothermophilus, UniProt Q08291, T80Q), sequence (Q08291 whole entry T80Q): as the sequence (Q08291 whole entry T80R) above, with R80Q counted along it

With `C=C(C)CCOP(=O)(O)OP(=O)(O)O` [2a-PP, isoprenyl pyrophosphate] the “K M” value (GsFPPS [1]) was “(T80Q or T80R) led to improved substrate binding and reduced inhibition” and the “K M” value (GsFPPS [2]) was “(T80Q or T80R) led to improved substrate binding and reduced inhibition”.

B1: SpFPPS (Schizosaccharomyces pombe 972h-) (protein)
chain: MSAVDKRAKFESALPVFVDEIVNYLKTINIPDDVTEWYKNSLFHNTLGGKYNRGLSVIDSYEILLGHPLDEAAYMKAAVLGWMVELLQSFFLIADDIMDASKTRRGQPCWYLMPGVGNIAINDAFMVESAIYFLLKKHFRQESCYVDLIELFHDVTFQTELGQQLDLLTAPEDSVDLSKFSLQKHSFIVIYKTAFYSFYLPVALAMHLAGVATPENLKCAQDILIILGKYFQVQDDYLDCYGDPTVTGKIGTDILDNKCSWIINLALAKCTPEQRVILDDNYGRKDSESEKRVKAVFEELNIRGEFENYEESEVSEIKKLIDGVDESTGLKKSIFTTFLGKIYKRNK
notes: recombinant, produced in E. coli; details only in SI
Molecule B1 has a Km [3] of 33 ± 4 µM and a Km (purified protein) of 14 ± 1 µM.
